# In patent US8802597B2, “Herbicidal pyrimidines” (E I du Pont de Nemours and Company, priority 2003, dated 2014):
# Read-outs that look alike come from different tables or passages of the source.
# How the values were obtained:
# Experiment in all cases: Test C pre/postemergence
# Type in all cases: in vivo
# [1] = system: morningglory (Ipomoea coccinea); settings: for Plant response rating, Morningglory: Preemergence
# In short: (§1)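 Applications: preemergence onto seeded soil and postemergence onto 1- to 4-leaf seedlings, compound carried in non-phytotoxic solvent plus surfactant. Kept in greenhouse 12 to 14 days. Scored visually relative to untreated controls, 0 (no effect) to 100 (complete control).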
# [2] = system: bermudagrass (Cynodon dactylon); settings: for pest or weed control at 16 g/ha: 16 g ai/ha
# In short: as §1
# [3] = system: common (oilseed) sunflower (Helianthus annuus); settings: Preemergence, scale 0 to 100, 0 no effect, 100 complete control
# In short: as §1
# [4] = system: crabgrass (Digitaria sanguinalis); settings: for pest or weed control at 16 g/ha: 16 g ai/ha
# In short: as §1
# [5] = system: giant foxtail (Setaria faberii); settings: for pest or weed control at 16 g/ha: 16 g ai/ha
# In short: as §1
# [6] = system: johnsongrass (Sorghum halepense); settings: for pest or weed control at 16 g/ha: 16 g ai/ha
# In short: as §1
# [7] = system: goosegrass (Eleusine indica); settings: for pest or weed control at 16 g/ha: 16 g ai/ha
# In short: as §1
# [8] = system: Surinam grass (Brachiaria decumbens); settings: for pest or weed control at 16 g/ha: 16 g ai/ha
# In short: as §1
# [9] = system: woolly cupgrass (Eriochloa villosa); settings: for pest or weed control at 16 g/ha: 16 g ai/ha
# In short: as §1
# [10] = system: soybean (Glycine max); settings: for Plant response rating, Soybean: Preemergence, scale 0 to 100, 0 no effect, 100 complete control
# In short: as §1
# [11] = system: pigweed (Amaranthus retroflexus); settings: for pest or weed control at 16 g/ha: 16 g ai/ha
# In short: as §1
# [12] = system: kochia (Kochia scoparia); settings: for pest or weed control at 31 g/ha: 31 g ai/ha
# In short: as §1
# [13] = Preemergence, 31 g ai/ha, scale 0 to 100, 0 no effect, 100 complete control
# [14] = Preemergence, 62 g ai/ha, scale 0 to 100, 0 no effect, 100 complete control
# [15] = Preemergence, 125 g ai/ha, scale 0 to 100
compound,measurement,setting,value
"Nc1nc(C2CC2)nc(C(=O)O)c1Cl [Compound 135, 6-amino-5-chloro-2-cyclopropyl-4-pyrimidinecarboxylic acid]",pest or weed control at 16 g/ha,"[1]; Ipomoea, post-emergence, Postemergence, 16 g ai/ha, read-out: Plant response rating (scale of 0 to 100), Morningglory",80%
same,pest or weed control at 31 g/ha,"[1]; Ipomoea, post-emergence, Postemergence, 31 g ai/ha, read-out: Plant response rating (scale of 0 to 100), Morningglory",90%
same,pest or weed control at 62 g/ha,"[1]; Ipomoea, post-emergence, Postemergence, 62 g ai/ha, read-out: Plant response rating (scale of 0 to 100), Morningglory",95%
same,pest or weed control at 125 g/ha,"[1]; Ipomoea, post-emergence, Postemergence, 125 g ai/ha, scale 0 to 100 (0 no effect, 100 complete control), read-out: Morningglory plant response rating",95%
same,"Plant response rating, Morningglory","[1]; 16 g ai/ha, scale 0 to 100, 0 no effect, 100 complete control",85
same,"Plant response rating, Morningglory","[1]; 31 g ai/ha, scale 0 to 100, 0 no effect, 100 complete control",90
same,"Plant response rating, Morningglory","[1]; 62 g ai/ha, scale 0 to 100, 0 no effect, 100 complete control",90
same,"Plant response rating, Morningglory","[1]; 125 g ai/ha, scale 0 to 100",100
same,pest or weed control at 16 g/ha,"[2]; Cynodon dactylon, post-emergence, Postemergence, read-out: Plant response rating (scale of 0 to 100), Bermudagrass",40%
same,pest or weed control at 62 g/ha,"[2]; Cynodon dactylon, post-emergence, Postemergence, 62 g ai/ha, scale 0 to 100 (0 no effect, 100 complete control), read-out: Bermudagrass plant response rating",60%
same,pest or weed control at 125 g/ha,"[2]; Cynodon dactylon, post-emergence, Postemergence, 125 g ai/ha, scale 0 to 100 (0 no effect, 100 complete control), read-out: Bermudagrass plant response rating",75%
same,pest or weed control at 16 g/ha,"[2]; Cynodon dactylon, pre-emergence, Preemergence, scale 0 to 100, 0 no effect, 100 complete control, read-out: Plant response rating, Bermudagrass",0%
same,"Plant response rating, Bermudagrass",[2]; [13],0
same,"Plant response rating, Bermudagrass",[2]; [14],0
same,"Plant response rating, Bermudagrass",[2]; [15],0
same,"Plant response rating, Sunflower",[3]; 16 g ai/ha,65
same,"Plant response rating, Sunflower",[3]; 31 g ai/ha,70
same,"Plant response rating, Sunflower",[3]; 62 g ai/ha,90
same,pest or weed control at 16 g/ha,"[4]; Digitaria sanguinalis, post-emergence, Postemergence, read-out: Plant response rating (scale of 0 to 100), Crabgrass",65%
same,pest or weed control at 31 g/ha,"[4]; Digitaria sanguinalis, post-emergence, Postemergence, 31 g ai/ha, read-out: Plant response rating (scale of 0 to 100), Crabgrass",75%
same,pest or weed control at 62 g/ha,"[4]; Digitaria sanguinalis, post-emergence, Postemergence, 62 g ai/ha, read-out: Plant response rating (scale of 0 to 100), Crabgrass",75%
same,pest or weed control at 125 g/ha,"[4]; Digitaria sanguinalis, post-emergence, Postemergence, 125 g ai/ha, scale 0 to 100 (0 no effect, 100 complete control), read-out: Crabgrass plant response rating",75%
same,pest or weed control at 16 g/ha,"[4]; Digitaria sanguinalis, pre-emergence, Preemergence, scale 0 to 100, 0 no effect, 100 complete control, read-out: Plant response rating, Crabgrass",0%
same,"Plant response rating, Crabgrass",[4]; [13],0
same,"Plant response rating, Crabgrass",[4]; [14],0
same,"Plant response rating, Crabgrass",[4]; [15],5
same,"Plant response rating, Foxtail, Giant",[5]; [13],0
same,"Plant response rating, Foxtail, Giant",[5]; [14],0
same,"Plant response rating, Foxtail, Giant",[5]; [15],0
same,pest or weed control at 125 g/ha,"[5]; Setaria faberi, post-emergence, Postemergence, 125 g ai/ha, scale 0 to 100 (0 no effect, 100 complete control), read-out: Foxtail, Giant plant response rating",75%
same,pest or weed control at 16 g/ha,"[5]; Setaria faberi, post-emergence, Postemergence, read-out: Plant response rating (scale of 0 to 100), Foxtail, Giant",10%
same,pest or weed control at 31 g/ha,"[5]; Setaria faberi, post-emergence, Postemergence, 31 g ai/ha, read-out: Plant response rating (scale of 0 to 100), Foxtail, Giant",60%
same,pest or weed control at 62 g/ha,"[5]; Setaria faberi, post-emergence, Postemergence, 62 g ai/ha, read-out: Plant response rating (scale of 0 to 100), Foxtail, Giant",65%
same,pest or weed control at 16 g/ha,"[5]; Setaria faberi, pre-emergence, Preemergence, scale 0 to 100, 0 no effect, 100 complete control, read-out: Plant response rating, Foxtail, Giant",0%
same,"Plant response rating, Johnsongrass",[6]; [13],0
same,"Plant response rating, Johnsongrass",[6]; [14],5
same,"Plant response rating, Johnsongrass",[6]; [15],40
same,pest or weed control at 16 g/ha,"[6]; Sorghum halepense, post-emergence, Postemergence, read-out: Plant response rating (scale of 0 to 100), Johnsongrass",15%
same,pest or weed control at 31 g/ha,"[6]; Sorghum halepense, post-emergence, Postemergence, 31 g ai/ha, read-out: Plant response rating (scale of 0 to 100), Johnsongrass",35%
same,pest or weed control at 62 g/ha,"[6]; Sorghum halepense, post-emergence, Postemergence, 62 g ai/ha, read-out: Plant response rating (scale of 0 to 100), Johnsongrass",65%
same,pest or weed control at 125 g/ha,"[6]; Sorghum halepense, post-emergence, Postemergence, 125 g ai/ha, scale 0 to 100 (0 no effect, 100 complete control), read-out: Johnsongrass plant response rating",70%
same,pest or weed control at 16 g/ha,"[6]; Sorghum halepense, pre-emergence, Preemergence, scale 0 to 100, 0 no effect, 100 complete control, read-out: Plant response rating, Johnsongrass",0%
same,pest or weed control at 16 g/ha,"[7]; Eleusine indica, post-emergence, Postemergence, read-out: Plant response rating (scale of 0 to 100), Goosegrass",5%
same,pest or weed control at 31 g/ha,"[7]; Eleusine indica, post-emergence, Postemergence, 31 g ai/ha, read-out: Plant response rating (scale of 0 to 100), Goosegrass",35%
same,pest or weed control at 62 g/ha,"[7]; Eleusine indica, post-emergence, Postemergence, 62 g ai/ha, read-out: Plant response rating (scale of 0 to 100), Goosegrass",45%
same,pest or weed control at 125 g/ha,"[7]; Eleusine indica, post-emergence, Postemergence, 125 g ai/ha, scale 0 to 100 (0 no effect, 100 complete control), read-out: Goosegrass plant response rating",55%
same,pest or weed control at 16 g/ha,"[7]; Eleusine indica, pre-emergence, Preemergence, scale 0 to 100, 0 no effect, 100 complete control, read-out: Plant response rating, Goosegrass",0%
same,"Plant response rating, Goosegrass",[7]; [13],0
same,"Plant response rating, Goosegrass",[7]; [14],0
same,"Plant response rating, Goosegrass",[7]; [15],40
same,"Plant response rating, Surinam Grass",[8]; [13],0
same,"Plant response rating, Surinam Grass",[8]; [14],0
same,pest or weed control at 125 g/ha,"[8]; Urochloa decumbens, post-emergence, Postemergence, 125 g ai/ha, scale 0 to 100 (0 no effect, 100 complete control), read-out: Surinam Grass plant response rating",60%
same,pest or weed control at 16 g/ha,"[8]; Urochloa decumbens, post-emergence, Postemergence, read-out: Plant response rating (scale of 0 to 100), Surinam Grass",45%
same,pest or weed control at 31 g/ha,"[8]; Urochloa decumbens, post-emergence, Postemergence, 31 g ai/ha, read-out: Plant response rating (scale of 0 to 100), Surinam Grass",50%
same,pest or weed control at 62 g/ha,"[8]; Urochloa decumbens, post-emergence, Postemergence, 62 g ai/ha, read-out: Plant response rating (scale of 0 to 100), Surinam Grass",60%
same,pest or weed control at 16 g/ha,"[8]; Urochloa decumbens, pre-emergence, Preemergence, scale 0 to 100, 0 no effect, 100 complete control, read-out: Plant response rating, Surinam Grass",0%
same,pest or weed control at 16 g/ha,"[9]; Eriochloa villosa, post-emergence, Postemergence, read-out: Plant response rating (scale of 0 to 100), Cupgrass, Woolly",30%
same,pest or weed control at 31 g/ha,"[9]; Eriochloa villosa, post-emergence, Postemergence, 31 g ai/ha, read-out: Plant response rating (scale of 0 to 100), Cupgrass, Woolly",60%
same,pest or weed control at 62 g/ha,"[9]; Eriochloa villosa, post-emergence, Postemergence, 62 g ai/ha, read-out: Plant response rating (scale of 0 to 100), Cupgrass, Woolly",60%
same,pest or weed control at 125 g/ha,"[9]; Eriochloa villosa, post-emergence, Postemergence, 125 g ai/ha, scale 0 to 100 (0 no effect, 100 complete control), read-out: Cupgrass, Woolly plant response rating",80%
same,pest or weed control at 16 g/ha,"[9]; Eriochloa villosa, pre-emergence, Preemergence, scale 0 to 100, 0 no effect, 100 complete control, read-out: Plant response rating, Cupgrass, Woolly",0%
same,"Plant response rating, Cupgrass, Woolly",[9]; [13],0
same,"Plant response rating, Cupgrass, Woolly",[9]; [14],0
same,"Plant response rating, Cupgrass, Woolly",[9]; [15],0
same,plant injury at 16 g/ha,"[10]; Glycine max, post-emergence, Postemergence, 16 g ai/ha, read-out: Plant response rating (scale of 0 to 100), Soybean",100%
same,plant injury at 62 g/ha,"[10]; Glycine max, post-emergence, Postemergence, 62 g ai/ha, read-out: Plant response rating (scale of 0 to 100), Soybean",100%
same,plant injury at 125 g/ha,"[10]; Glycine max, post-emergence, Postemergence, 125 g ai/ha, scale 0 to 100 (0 no effect, 100 complete control), read-out: Soybean plant response rating",100%
same,"Plant response rating, Soybean",[10]; 16 g ai/ha,85
same,"Plant response rating, Soybean",[10]; 31 g ai/ha,95
same,"Plant response rating, Soybean",[10]; 62 g ai/ha,95
same,pest or weed control at 16 g/ha,"[11]; Amaranthus retroflexus, post-emergence, Postemergence, read-out: Plant response rating (scale of 0 to 100), Pigweed",85%
same,pest or weed control at 31 g/ha,"[11]; Amaranthus retroflexus, post-emergence, Postemergence, 31 g ai/ha, read-out: Plant response rating (scale of 0 to 100), Pigweed",95%
same,pest or weed control at 62 g/ha,"[11]; Amaranthus retroflexus, post-emergence, Postemergence, 62 g ai/ha, read-out: Plant response rating (scale of 0 to 100), Pigweed",100%
same,pest or weed control at 125 g/ha,"[11]; Amaranthus retroflexus, post-emergence, Postemergence, 125 g ai/ha, scale 0 to 100 (0 no effect, 100 complete control), read-out: Pigweed plant response rating",100%
same,pest or weed control at 16 g/ha,"[11]; Amaranthus retroflexus, pre-emergence, Preemergence, scale 0 to 100, 0 no effect, 100 complete control, read-out: Plant response rating, Pigweed",70%
same,"Plant response rating, Pigweed",[11]; [13],70
same,"Plant response rating, Pigweed",[11]; [14],80
same,pest or weed control at 16 g/ha,"[12]; Bassia scoparia, post-emergence, Postemergence, 16 g ai/ha, read-out: Plant response rating (scale of 0 to 100), Kochia",75%
same,pest or weed control at 31 g/ha,"[12]; Bassia scoparia, post-emergence, Postemergence, read-out: Plant response rating (scale of 0 to 100), Kochia",90%
same,pest or weed control at 62 g/ha,"[12]; Bassia scoparia, post-emergence, Postemergence, 62 g ai/ha, read-out: Plant response rating (scale of 0 to 100), Kochia",90%
same,pest or weed control at 125 g/ha,"[12]; Bassia scoparia, post-emergence, Postemergence, 125 g ai/ha, scale 0 to 100 (0 no effect, 100 complete control), read-out: Kochia plant response rating",95%
same,pest or weed control at 31 g/ha,"[12]; Bassia scoparia, pre-emergence, Preemergence, scale 0 to 100, 0 no effect, 100 complete control, read-out: Plant response rating, Kochia",75%
same,"Plant response rating, Kochia","[12]; Preemergence, 16 g ai/ha, scale 0 to 100, 0 no effect, 100 complete control",60
same,"Plant response rating, Kochia",[12]; [14],75
same,"Plant response rating, Kochia",[12]; [15],100
